Assay results reported in ChEMBL document CHEMBL3885861, “Open TG-GATES”.

Species: Rattus norvegicus
Assay: Open TG-GATES - Regimen: Daily Repeat
Type: toxicity, organism-based, Sprague-Dawley
Parameters: regimen Daily Repeat, gender Male, age 6 weeks
Conditions: in vivo, po, 0 mg/kg, route gavage, dose level Control; for APTT / Bas / Eos / Fbg / Hb / Ht / Lym / MCH / MCHC / MCV / Mono / Neu / PT / Plat / RBC / Ret / WBC: tissue Blood; for KIDNEY_L / KIDNEY_R / KIDNEY_TOTAL: tissue Kidney; for LIVER: tissue Liver; for A/G / ALP / ALT / AST / BUN / CRE / Ca / Cl / DBIL / GLC / IP / K / LDH / Na / PL / RALB / TBIL / TC / TG / TP / gamma-GTP: tissue Plasma

For `CCOC(=O)CCC(=O)O[C@H]1[C@H](O[C@@H]2[C@@H](C)[C@H](O[C@H]3C[C@@](C)(OC)[C@@H](O)[C@H](C)O3)[C@@H](C)C(=O)O[C@H](CC)[C@@](C)(O)[C@H](O)[C@@H](C)C(=O)[C@H](C)C[C@@]2(C)O)O[C@H](C)C[C@@H]1N(C)C` [ERYTHROMYCIN ETHYLSUCCINATE], the TERMINAL_BW (72 h, time 3 day) was 237.5 g, the APTT (72 h, time 3 day) was 21.3 s and the Bas (72 h, time 3 day) was 0%. It also gave an Eos (72 h, time 3 day) of 1%, a Fbg (72 h, time 3 day) of 295.4 mg/dL and a Hb (72 h, time 3 day) of 13.4 g/dL. For the same molecule, the Ht (72 h, time 3 day) was 39.6%, the Lym (72 h, time 3 day) was 78.6% and the MCH (72 h, time 3 day) was 21.3 pg. For the same molecule, the MCHC (72 h, time 3 day) was 33.7%, the MCV (72 h, time 3 day) was 63 fL and the Mono (72 h, time 3 day) was 3.4%. It also gave a Neu (72 h, time 3 day) of 16.2%, a PT (72 h, time 3 day) of 16.3 s and a Plat (72 h, time 3 day) of 124.3 x10_4/uL. It also gave an RBC (72 h, time 3 day) of 628.8 x10_4/ul, a Ret (72 h, time 3 day) of 6.2% and a WBC (72 h, time 3 day) of 96.6 x10_2/uL. It also gave a KIDNEY_L (72 h, time 3 day) of 1.1 g, a KIDNEY_R (72 h, time 3 day) of 1.1 g and a KIDNEY_TOTAL (72 h, time 3 day) of 2.1 g. The LIVER (72 h, time 3 day) was 10.7 g, the A/G (72 h, time 3 day) was 1.2 and the ALP (72 h, time 3 day) was 1575.2 IU/L. It also gave an ALT (72 h, time 3 day) of 38.2 IU/L, an AST (72 h, time 3 day) of 68.6 IU/L and a BUN (72 h, time 3 day) of 17.8 mg/dL. For the same molecule, the CRE (72 h, time 3 day) was 0.2 mg/dL, the Ca (72 h, time 3 day) was 10.1 mg/dL and the Cl (72 h, time 3 day) was 107.6 meq/L. For the same molecule, the DBIL (72 h, time 3 day) was 0 mg/dL, the GLC (72 h, time 3 day) was 198.2 mg/dL and the IP (72 h, time 3 day) was 6.6 mg/dL. For the same molecule, the K (72 h, time 3 day) was 4.3 meq/L, the LDH (72 h, time 3 day) was 181.8 IU/L and the Na (72 h, time 3 day) was 141 meq/L. For the same molecule, the PL (72 h, time 3 day) was 139.8 mg/dL, the RALB (72 h, time 3 day) was 2.9 g/dL and the TBIL (72 h, time 3 day) was 0.016 mg/dL. It also gave a TC (72 h, time 3 day) of 71.4 mg/dL, a TG (72 h, time 3 day) of 91 mg/dL and a TP (72 h, time 3 day) of 5.4 g/dL. For the same molecule, the gamma-GTP (72 h, time 3 day) was 1.2 IU/L, the TERMINAL_BW ([…], time 7 day) was 272.7 g and the TERMINAL_BW ([…], time 14 day) was 330.3 g. For the same molecule, the TERMINAL_BW ([…], time 28 day) was 372.4 g, the APTT ([…], time 7 day) was 20.5 s and the Bas ([…], time 7 day) was 0%. It also gave an Eos ([…], time 7 day) of 1%, a Fbg ([…], time 7 day) of 307.2 mg/dL and a Hb ([…], time 7 day) of 14.1 g/dL. It also gave a Ht ([…], time 7 day) of 41.9%, a Lym ([…], time 7 day) of 78.2% and an MCH ([…], time 7 day) of 21 pg. The MCHC ([…], time 7 day) was 33.6%, the MCV ([…], time 7 day) was 62.4 fL and the Mono ([…], time 7 day) was 2.4%. For the same molecule, the Neu ([…], time 7 day) was 17.4%, the PT ([…], time 7 day) was 16.6 s and the Plat ([…], time 7 day) was 119.4 x10_4/uL. For the same molecule, the RBC ([…], time 7 day) was 673.2 x10_4/ul, the Ret ([…], time 7 day) was 6.2% and the WBC ([…], time 7 day) was 121.5 x10_2/uL. The APTT ([…], time 14 day) was 22.3 s, the Bas ([…], time 14 day) was 0% and the Eos ([…], time 14 day) was 1%. It also gave a Fbg ([…], time 14 day) of 317.8 mg/dL, a Hb ([…], time 14 day) of 13.9 g/dL and a Ht ([…], time 14 day) of 40.4%. The Lym ([…], time 14 day) was 80.2%, the MCH ([…], time 14 day) was 21.2 pg and the MCHC ([…], time 14 day) was 34.5%. For the same molecule, the MCV ([…], time 14 day) was 61.5 fL, the Mono ([…], time 14 day) was 2.4% and the Neu ([…], time 14 day) was 14.8%. The PT ([…], time 14 day) was 16.3 s, the Plat ([…], time 14 day) was 104.3 x10_4/uL and the RBC ([…], time 14 day) was 656.6 x10_4/ul. The Ret ([…], time 14 day) was 5.2%, the WBC ([…], time 14 day) was 110.8 x10_2/uL and the APTT ([…], time 28 day) was 24.4 s. For the same molecule, the Bas ([…], time 28 day) was 0%, the Eos ([…], time 28 day) was 1% and the Fbg ([…], time 28 day) was 317.2 mg/dL. The Hb ([…], time 28 day) was 15.2 g/dL, the Ht ([…], time 28 day) was 44% and the Lym ([…], time 28 day) was 81.8%. For the same molecule, the MCH ([…], time 28 day) was 19.4 pg, the MCHC ([…], time 28 day) was 34.6% and the MCV ([…], time 28 day) was 56.2 fL. It also gave a Mono ([…], time 28 day) of 2.8%, a Neu ([…], time 28 day) of 13% and a PT ([…], time 28 day) of 16.4 s. For the same molecule, the Plat ([…], time 28 day) was 99.6 x10_4/uL, the RBC ([…], time 28 day) was 783.8 x10_4/ul and the Ret ([…], time 28 day) was 2.7%. It also gave a WBC ([…], time 28 day) of 109.9 x10_2/uL, a KIDNEY_L ([…], time 7 day) of 1.1 g and a KIDNEY_R ([…], time 7 day) of 1.1 g. The KIDNEY_TOTAL ([…], time 7 day) was 2.2 g, the KIDNEY_L ([…], time 14 day) was 1.3 g and the KIDNEY_R ([…], time 14 day) was 1.3 g. It also gave a KIDNEY_TOTAL ([…], time 14 day) of 2.6 g, a KIDNEY_L ([…], time 28 day) of 1.4 g and a KIDNEY_R ([…], time 28 day) of 1.4 g. It also gave a KIDNEY_TOTAL ([…], time 28 day) of 2.8 g, an LIVER ([…], time 7 day) of 12.3 g and an LIVER ([…], time 14 day) of 14.7 g. It also gave an LIVER ([…], time 28 day) of 14.6 g, an A/G ([…], time 7 day) of 1.1 and an ALP ([…], time 7 day) of 1670.4 IU/L. The ALT ([…], time 7 day) was 43 IU/L, the AST ([…], time 7 day) was 72.2 IU/L and the BUN ([…], time 7 day) was 20.4 mg/dL. The CRE ([…], time 7 day) was 0.2 mg/dL, the Ca ([…], time 7 day) was 10.7 mg/dL and the Cl ([…], time 7 day) was 107.6 meq/L. For the same molecule, the DBIL ([…], time 7 day) was 0 mg/dL, the GLC ([…], time 7 day) was 216.8 mg/dL and the IP ([…], time 7 day) was 7.3 mg/dL. The K ([…], time 7 day) was 4.3 meq/L, the LDH ([…], time 7 day) was 201.8 IU/L and the Na ([…], time 7 day) was 141.2 meq/L. The PL ([…], time 7 day) was 155.2 mg/dL, the RALB ([…], time 7 day) was 2.9 g/dL and the TBIL ([…], time 7 day) was 0 mg/dL. For the same molecule, the TC ([…], time 7 day) was 70.8 mg/dL, the TG ([…], time 7 day) was 133.4 mg/dL and the TP ([…], time 7 day) was 5.6 g/dL. For the same molecule, the gamma-GTP ([…], time 7 day) was 1.4 IU/L, the A/G ([…], time 14 day) was 1.1 and the ALP ([…], time 14 day) was 1330.4 IU/L. For the same molecule, the ALT ([…], time 14 day) was 46.6 IU/L, the AST ([…], time 14 day) was 76 IU/L and the BUN ([…], time 14 day) was 21 mg/dL. For the same molecule, the CRE ([…], time 14 day) was 0.2 mg/dL, the Ca ([…], time 14 day) was 10.5 mg/dL and the Cl ([…], time 14 day) was 105.2 meq/L. The DBIL ([…], time 14 day) was 0 mg/dL, the GLC ([…], time 14 day) was 207.2 mg/dL and the IP ([…], time 14 day) was 7.1 mg/dL. It also gave a K ([…], time 14 day) of 4.5 meq/L, an LDH ([…], time 14 day) of 208.6 IU/L and a Na ([…], time 14 day) of 141.4 meq/L. The PL ([…], time 14 day) was 153.4 mg/dL, the RALB ([…], time 14 day) was 2.9 g/dL and the TBIL ([…], time 14 day) was 0 mg/dL. It also gave a TC ([…], time 14 day) of 73 mg/dL, a TG ([…], time 14 day) of 135.2 mg/dL and a TP ([…], time 14 day) of 5.7 g/dL. It also gave a gamma-GTP ([…], time 14 day) of 2.2 IU/L, an A/G ([…], time 28 day) of 1.1 and an ALP ([…], time 28 day) of 1212.8 IU/L. For the same molecule, the ALT ([…], time 28 day) was 45.8 IU/L, the AST ([…], time 28 day) was 71.6 IU/L and the BUN ([…], time 28 day) was 19.6 mg/dL. The CRE ([…], time 28 day) was 0.2 mg/dL, the Ca ([…], time 28 day) was 10.4 mg/dL and the Cl ([…], time 28 day) was 106.6 meq/L. For the same molecule, the DBIL ([…], time 28 day) was 0 mg/dL, the GLC ([…], time 28 day) was 189.4 mg/dL and the IP ([…], time 28 day) was 6.2 mg/dL. The K ([…], time 28 day) was 4.1 meq/L, the LDH ([…], time 28 day) was 130.6 IU/L and the Na ([…], time 28 day) was 141 meq/L. It also gave a PL ([…], time 28 day) of 135.8 mg/dL, an RALB ([…], time 28 day) of 3 g/dL and a TBIL ([…], time 28 day) of 0.01 mg/dL. It also gave a TC ([…], time 28 day) of 62 mg/dL, a TG ([…], time 28 day) of 118.4 mg/dL and a TP ([…], time 28 day) of 5.9 g/dL. It also gave a gamma-GTP ([…], time 28 day) of 2.8 IU/L.
